The values that follow come from ChEMBL document CHEMBL1148617, “Design, synthesis, and structure-activity relationships of 1-,3-,8-, and 9-substituted-9-deazaxanthines at the human A2B adenosine receptor” (J Med Chem, 2006).

The target of assay [1] is T1, Adenosine receptor A2b (Homo sapiens) (UniProt P29275).
T1 sequence (whole entry): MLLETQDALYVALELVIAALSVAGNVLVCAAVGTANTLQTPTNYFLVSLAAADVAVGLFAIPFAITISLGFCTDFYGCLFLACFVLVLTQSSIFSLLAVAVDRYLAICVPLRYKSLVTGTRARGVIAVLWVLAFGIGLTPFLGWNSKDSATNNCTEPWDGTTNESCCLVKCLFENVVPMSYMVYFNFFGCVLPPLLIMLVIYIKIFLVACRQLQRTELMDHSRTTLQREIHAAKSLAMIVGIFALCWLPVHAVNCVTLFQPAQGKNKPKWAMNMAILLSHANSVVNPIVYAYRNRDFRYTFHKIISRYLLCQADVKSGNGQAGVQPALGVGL
The experiment in a line: Displacement of [3H]DPCPX from recombinant human adenosine A2B receptor expressed in HEK293 cells at 0.1 uM. The class given is cell-based.

Assay [2] has as its target T1, Adenosine receptor A2b (Homo sapiens). Put plainly: Displacement of [3H]DPCPX from recombinant human adenosine A2B receptor expressed in HEK293 cells at 0.01 uM.
For a further assay, the target named is Adenosine receptor A2a (Homo sapiens, UniProt P29274). The experiment in a line: Displacement of [3H]ZM-241385 from recombinant human adenosine A2A receptor expressed in HeLa cells at 0.1 uM.

Each structure is given as a SMILES string.

Sequence of Adenosine receptor A2a (P29274 whole entry): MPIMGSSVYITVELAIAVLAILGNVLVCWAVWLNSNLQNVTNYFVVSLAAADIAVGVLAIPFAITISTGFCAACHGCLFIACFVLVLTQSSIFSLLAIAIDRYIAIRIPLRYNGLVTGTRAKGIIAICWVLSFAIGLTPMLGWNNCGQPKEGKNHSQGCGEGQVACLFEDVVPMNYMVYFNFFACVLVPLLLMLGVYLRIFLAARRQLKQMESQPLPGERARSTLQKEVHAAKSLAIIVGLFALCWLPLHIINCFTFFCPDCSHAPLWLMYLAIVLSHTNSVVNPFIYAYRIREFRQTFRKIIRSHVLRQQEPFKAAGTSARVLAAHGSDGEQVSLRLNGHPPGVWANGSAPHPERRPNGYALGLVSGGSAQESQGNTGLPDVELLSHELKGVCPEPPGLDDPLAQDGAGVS

With `CCCn1c(=O)n(C)c(=O)c2[nH]c(-c3ccc(OCC(=O)Nc4ccc5c(c4)CCC5=O)cc3)cc21`, the results for the inhibition (in assay [1]; in assay [2]; on Adenosine receptor A2a) were 50%, 12% and 26%, respectively.

`CCCn1c(=O)c2[nH]c(-c3ccc(OCC(=O)Nc4cc(F)ccc4O)cc3)cc2n(CCC)c1=O`: the inhibition was determined as 89% in assay [1], 29% in assay [2] and 73% on Adenosine receptor A2a.

As to `COCCCn1c(=O)c2[nH]c(-c3ccc(OCC(=O)O)cc3)cc2n(CCCOC)c1=O`, the inhibition in assay [1] was determined as 12%; in assay [2], 10%; on Adenosine receptor A2a, 9%.

Regarding `Cn1c(=O)c2[nH]c(-c3ccc(OCC(=O)N[C@H]4C(O)O[C@H](CO)[C@@H](O)[C@@H]4O)cc3)cc2n(C)c1=O` (stereo partly specified), the inhibition turned out to be 33% in assay [1], 7% in assay [2] and 13% at Adenosine receptor A2a.

Consider `CCCn1c(=O)c2[nH]c(-c3ccc(OCC(=O)Nc4ccc(C)cn4)cc3)cc2n(C)c1=O`, for which the inhibition worked out at 73% in assay [1], 24% in assay [2] and 12% on Adenosine receptor A2a.

Regarding `CCCn1c(=O)c2[nH]c(-c3ccc(OCC(=O)NCc4ccncc4)cc3)cc2n(C)c1=O`, the inhibition came out at 49% in assay [1], 27% in assay [2] and 3% at Adenosine receptor A2a.

As for `CCCn1c(=O)c2[nH]c(-c3ccc(OCC(=O)Nc4ccc(Br)cc4)cc3OC)cc2n(CCC)c1=O`, the figures for the inhibition (in assay [1]; in assay [2]; on Adenosine receptor A2a) were 64%, 18% and 39%, respectively.

Turning to `CCCn1c(=O)c2[nH]c(-c3ccc(OCC(=O)NC(C(=O)OC)c4ccccc4)cc3)cc2n(CCC)c1=O` (stereo unspecified), the inhibition in assay [1] was 58%; in assay [2], 29%; on Adenosine receptor A2a it was 39%.

Regarding `COCCCn1c(=O)c2[nH]c(-c3ccc(OCC(=O)Nc4ccc(Br)cc4)cc3)cc2n(CCCOC)c1=O`, the results for the inhibition (in assay [1]; in assay [2]; on Adenosine receptor A2a) were 85%, 45% and 30%, respectively.

Take `CCCn1c(=O)c2[nH]c(-c3ccc(OCC(=O)Nc4ncccc4O)cc3)cc2n(C)c1=O`: the inhibition in assay [1] came to 71%; in assay [2], 31%; at Adenosine receptor A2a, 22%.

In the case of `CCCn1c(=O)c2[nH]c(-c3ccc(OCC(=O)OCC)cc3)cc2n(CCC)c1=O`, the inhibition in assay [1] worked out at 55%; in assay [2], 9%; at Adenosine receptor A2a, 21%.

Regarding `CCCn1c(=O)c2[nH]c(-c3ccc(OCC(=O)N[C@H](C)[C@H](O)c4ccccc4)cc3)cc2n(CCC)c1=O`, the inhibition in assay [1] was 70%; in assay [2], 14%; on Adenosine receptor A2a, 18%.

Take `CCCn1c(=O)c2[nH]c(-c3ccc(OCC(=O)Nc4ccc(F)cc4O)cc3)cc2n(CCC)c1=O`: the values for the inhibition (in assay [1]; in assay [2]; at Adenosine receptor A2a) were 88%, 23% and 80%, respectively.

With `CC(C)Cn1c(=O)c2[nH]c(-c3ccc(OCC(=O)O)cc3)cc2n(C)c1=O`, the inhibition in assay [1] stood at 28%; on Adenosine receptor A2a, 1%.

On to `Cn1c(=O)c2[nH]c(-c3ccc(OC(C)(C)C(=O)O)cc3)cc2n(C)c1=O`, for which the inhibition is 14% in assay [1], 3% in assay [2] and 2% on Adenosine receptor A2a.

Regarding `O=C(O)COc1ccc(-c2cc3c([nH]2)c(=O)n(CC2CC2)c(=O)n3CC2CC2)cc1`, the inhibition in assay [1] stood at 69%; in assay [2], 27%; at Adenosine receptor A2a, 40%.

Consider `CCCn1c(=O)c2[nH]c(-c3ccc(OC(C(=O)Nc4ccccc4)c4ccccc4)cc3)cc2n(CCC)c1=O` (stereo unspecified), for which the results for the inhibition (in assay [1]; in assay [2]; at Adenosine receptor A2a) were 89%, 44% and 75%, respectively.

For `CCCn1c(=O)c2[nH]c(-c3ccc(OCC(=O)NC(CCl)c4ccccc4)cc3)cc2n(CCC)c1=O` (stereo unspecified), the inhibition came out at 74% in assay [1], 25% in assay [2] and 75% at Adenosine receptor A2a.

As to `Cn1c(=O)c2[nH]c(-c3ccc(OCC(=O)Nc4ccc(F)cc4)cc3)cc2n(CCN2CCOCC2)c1=O`, the inhibition amounted to 27% in assay [1], 16% in assay [2] and 10% on Adenosine receptor A2a.

In the case of `CCCn1c(=O)c2[nH]c(-c3ccc(OC(C)(C)C(=O)O)cc3)cc2n(C)c1=O`, the inhibition in assay [1] was determined as 50%; in assay [2], 8%; on Adenosine receptor A2a, 3%.

For `CCCn1c(=O)n(C)c(=O)c2[nH]c(-c3ccc(OCC(=O)Nc4ccc(Br)cc4)cc3)cc21`, the inhibition was 84% in assay [1] and 91% on Adenosine receptor A2a.

As for `COc1cc(NC(=O)COc2ccc(-c3cc4c([nH]3)c(=O)n(C)c(=O)n4C)cc2)nc(OC)n1`, the inhibition is 50% in assay [1], 12% in assay [2] and 14% on Adenosine receptor A2a.

With `CC(Oc1ccc(-c2cc3c([nH]2)c(=O)n(C)c(=O)n3C)cc1)C(=O)O` (stereo unspecified), the inhibition in assay [1] is 34%; in assay [2], 5%; at Adenosine receptor A2a, 9%.

`CCCn1c(=O)c2[nH]c(-c3ccc(OC(C)(C)C(=O)O)cc3)cc2n(CCC)c1=O`: the inhibition was determined as 26% in assay [1], 12% in assay [2] and 6% at Adenosine receptor A2a.

For the compound `CCCn1c(=O)n(C)c(=O)c2[nH]c(-c3ccc(OCC(=O)N(C)Cc4ccccc4)cc3)cc21`, the values for the inhibition (in assay [1]; in assay [2]; on Adenosine receptor A2a) were 32%, 15% and 15%, respectively.

As for `CCCn1c(=O)c2[nH]c(-c3ccc(OC(C(=O)Nc4ccc(F)cc4)c4ccccc4)cc3)cc2n(CCC)c1=O` (stereo unspecified), the values for the inhibition (in assay [1]; in assay [2]; on Adenosine receptor A2a) were 84%, 32% and 65%, respectively.

Consider `CCCn1c(=O)c2[nH]c(-c3ccc(N(C=O)CC(=O)Nc4ccc(F)cc4)cc3)cc2n(CCC)c1=O`, for which the values for the inhibition (in assay [1]; in assay [2]; at Adenosine receptor A2a) were 93%, 24% and 89%, respectively.

`CCCn1c(=O)c2[nH]c(-c3ccc(OCC(=O)O)cc3Cl)cc2n(CCC)c1=O`: the inhibition in assay [1] was found to be 10%; in assay [2] it was 14%; on Adenosine receptor A2a, 6%.

Regarding `CCCn1c(=O)c2[nH]c(-c3ccc(OCC(=O)NC(CO)c4ccccc4)cc3)cc2n(CCC)c1=O` (stereo unspecified), the inhibition in assay [1] worked out at 77%; in assay [2] it was 30%; at Adenosine receptor A2a, 53%.

With `CCCn1c(=O)c2[nH]c(-c3ccc(OCC(=O)Nc4ccc(C(F)(F)F)cc4)cc3)cc2n(CCC)c1=O`, the figures for the inhibition (in assay [1]; in assay [2]; on Adenosine receptor A2a) were 85%, 14% and 19%, respectively.

For the compound `CCCn1c(=O)c2nc(-c3ccc(OCC(N)=O)cc3)[nH]c2n(CCC)c1=O`, the results for the inhibition (in assay [1]; in assay [2]; on Adenosine receptor A2a) were 56%, 11% and 10%, respectively.

As for `Cn1c(=O)c2[nH]c(-c3ccc(OCC(=O)O)cc3)cc2n(CCN2CCOCC2)c1=O`, the inhibition in assay [1] was found to be 18%; on Adenosine receptor A2a it was 11%.

Take `Cn1c(=O)c2[nH]c(-c3cccc(OCC(=O)O)c3)cc2n(C)c1=O`: the values for the inhibition (in assay [1]; at Adenosine receptor A2a) were 23% and 15%, respectively.

For `CCCn1c(=O)c2[nH]c(-c3ccc(OCC(=O)OCC)cc3OC)cc2n(CCC)c1=O`, the results for the inhibition (in assay [1]; at Adenosine receptor A2a) were 1% and 10%, respectively.

Regarding `CCCn1c(=O)c2[nH]c(-c3ccc(OCC(=O)O)cc3OC)cc2n(CCC)c1=O`, the results for the inhibition (in assay [1]; at Adenosine receptor A2a) were 8% and 10%, respectively.

Take `Cn1c(=O)c2[nH]c(-c3ccc(OCC(=O)O)cc3)c(Br)c2n(C)c1=O`: the inhibition in assay [1] came out at 24%; at Adenosine receptor A2a it was 4%.
